Assay results published in US20260201008A1, “SECRETIN-DERIVED GLP1R SELECTIVE AGONISTS” (GUBRA A/S, priority 2023, published 2026).
Like-named read-outs stand apart in the source and are kept apart here. Numbered stars: 1 amine (or outer) side, 2 acyl side, 3 side chain; on linkers, the order of the positions; unused ones are H or OH. Square brackets hold non-standard residues; d marks the D form. Side chains are listed from the residue outwards. Peptide text beside a SMILES is read from it. * marks the point of attachment. C20 diacid = O=C(O)CCCCCCCCCCCCCCCCCCC(=O)*; γGlu = O=C(O)[C@H](CCC(=O)[*:2])N[*:1]; AEEA = NCCOCCOCC(=O)O; Aib = CC(C)(N)C(=O)O

Experiments:
[1] = molecular target: SCTR (Homo sapiens, UniProt P47872); assay: hSCTR potency, cAMP accumulation in CHO-K1 cells stably overexpressing hSCTR; format: cell-based; parameters: alternatively Euroscreen ES-712-AF; FAST-0161L; host or cells: CHO-K1; conditions: cAMP accumulation, CHO-K1 cells overexpressing hSCTR
Sequence of SCTR (P47872 23-440): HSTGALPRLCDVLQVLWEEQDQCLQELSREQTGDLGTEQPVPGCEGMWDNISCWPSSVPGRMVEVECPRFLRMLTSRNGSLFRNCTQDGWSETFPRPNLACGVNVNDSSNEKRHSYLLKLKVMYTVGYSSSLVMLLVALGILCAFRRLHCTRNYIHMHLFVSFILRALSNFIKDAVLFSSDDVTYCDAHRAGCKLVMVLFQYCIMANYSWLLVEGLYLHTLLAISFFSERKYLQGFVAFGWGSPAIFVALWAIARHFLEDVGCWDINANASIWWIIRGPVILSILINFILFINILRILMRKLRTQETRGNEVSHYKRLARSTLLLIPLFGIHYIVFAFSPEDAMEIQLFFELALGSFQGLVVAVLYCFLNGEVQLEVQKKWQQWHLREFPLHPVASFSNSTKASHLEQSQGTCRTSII
Method in brief: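 In this Gs cAMP assay, stably transfected CHO-K1 hSCTR cells were stimulated at room temperature for 30 min in IBMX-containing buffer. Time-resolved FRET gave the signal. Replicates were increased when the top concentration changed or EC50 values differed 5-fold.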

[2] = Turbidity of crude library peptides (absorbance at 600 nm); format: physicochemical; conditions: Physical stability of peptides
Method in brief: (§1)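 Fibril formation is scored as average ThT fluorescence from duplicate samples monitored for 72 h at 40° C with shaking stress. Turbidity is the absorbance at 600 nm taken before heating. Peptide concentration was 267 μM at pH 4.0 or pH 7.0.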

[3] = molecular target: GLP1R (Homo sapiens, UniProt P43220); assay: hGLP1R potency, cAMP accumulation in CHO-K1 cells stably overexpressing hGLP1R; format: cell-based; parameters: host or cells: CHO-K1; conditions: for EC50: cAMP accumulation, CHO-K1 cells overexpressing hGLP1R; for SCTR EC50/GLP1R EC50 ratio: selectivity for hGLP1R over hSCTR, cAMP accumulation in CHO-K1 cells
Sequence of GLP1R (P43220 24-463): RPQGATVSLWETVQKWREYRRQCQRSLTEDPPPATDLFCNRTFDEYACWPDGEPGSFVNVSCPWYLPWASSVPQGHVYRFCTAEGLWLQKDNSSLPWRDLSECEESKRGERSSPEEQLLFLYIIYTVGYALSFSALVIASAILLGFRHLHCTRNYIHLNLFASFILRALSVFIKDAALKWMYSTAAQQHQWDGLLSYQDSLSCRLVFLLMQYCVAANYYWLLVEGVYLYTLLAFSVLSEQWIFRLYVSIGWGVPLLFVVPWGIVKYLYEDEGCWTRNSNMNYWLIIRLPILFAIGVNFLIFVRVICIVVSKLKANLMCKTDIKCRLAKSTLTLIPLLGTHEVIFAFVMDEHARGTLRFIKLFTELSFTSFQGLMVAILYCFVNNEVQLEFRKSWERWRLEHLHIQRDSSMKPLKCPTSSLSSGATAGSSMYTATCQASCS
Method in brief: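 In the presence of 0.5 mM IBMX, compounds stimulated the cells for 30 minutes at room temperature. Accumulated cAMP was then detected by TR-FRET, with EC50 values fitted by variable-slope nonlinear regression.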

[4] = Fibril formation of crude library peptides (Thioflavin T); format: physicochemical; parameters: key: average ThT fluorescence emission at 480 nm (ex 450 nm), raw units; conditions: Physical stability of peptides
Method in brief: as §1

[5] = read-out: hSCTR pEC50 (converted)
[6] = read-out: hGLP1R pEC50 (converted)

| SMILES | EC50 [1, 5] [nM] | Turbidity (pH 7) [2] | EC50 [3, 6] [nM] | SCTR EC50/GLP1R EC50 ratio [3] | Fibril formation [4] | EC50 ([1]; read-out: pEC50 hSCTR (converted)) [nM] | Selectivity ([3]; SCTR EC50/GLP1R EC50 ratio) | EC50 ([3]; read-out: pEC50 hGLPR1 (converted)) [nM] |
| --- | --- | --- | --- | --- | --- | --- | --- | --- |
| CC(C)C[C@H](NC(=O)[C@H](Cc1ccccc1)NC(=O)[C@H](CCCNC(=N)N)NC(=O)[C@H](CCC(N)=O)NC(=O)C(C)(C)NC(=O)[C@H](C)NC(=O)[C@H](C)NC(=O)[C@@H](NC(=O)[C@H](CCC(=O)O)NC(=O)[C@H](CCCCNC(=O)COCCOCCNC(=O)COCCOCCNC(=O)CC[C@H](NC(=O)CCCCCCCCCCCCCCCCCCC(=O)O)C(=O)O)NC(=O)[C@H](CC(C)C)NC(=O)[C@H](CCCNC(=N)N)NC(=O)[C@H](CO)NC(=O)[C@@H](NC(=O)[C@H](CC(=O)O)NC(=O)[C@H](CO)NC(=O)[C@@H](NC(=O)[C@H](Cc1ccccc1)NC(=O)[C@@H](NC(=O)CNC(=O)[C@H](CCC(=O)O)NC(=O)C(C)(C)NC(=O)[C@@H](N)Cc1c[nH]cn1)[C@@H](C)O)[C@@H](C)O)C(C)C)[C@@H](C)O)C(=O)N[C@@H](CCC(=O)O)C(=O)N[C@@H](Cc1c[nH]cn1)C(=O)N[C@@H](CC(C)C)C(=O)N[C@H](C(N)=O)C(C)C [compound 85] (H-H[Aib]EGTFTSDVSRLK([AEEA-AEEA-γGlu-C20 diacid])ETAA[Aib]QRFLEHLV-NH2) | 1580 | 0.09 | 0.126 | 12682 | 19223 |  |  |  |
| CC(C)C[C@H](NC(=O)[C@H](Cc1ccccc1)NC(=O)[C@H](CCCNC(=N)N)NC(=O)[C@H](CCC(N)=O)NC(=O)[C@H](C)NC(=O)[C@H](C)NC(=O)[C@H](C)NC(=O)[C@H](CCC(=O)O)NC(=O)[C@H](CCC(=O)O)NC(=O)[C@H](CCCCNC(=O)COCCOCCNC(=O)COCCOCCNC(=O)CC[C@H](NC(=O)CCCCCCCCCCCCCCCCCCC(=O)O)C(=O)O)NC(=O)[C@H](CC(C)C)NC(=O)[C@H](Cc1ccccc1)NC(=O)[C@H](CO)NC(=O)[C@@H](NC(=O)[C@H](CC(=O)O)NC(=O)[C@H](CO)NC(=O)[C@@H](NC(=O)[C@H](Cc1ccccc1)NC(=O)[C@@H](NC(=O)CNC(=O)[C@H](CCC(=O)O)NC(=O)C(C)(C)NC(=O)[C@@H](N)Cc1c[nH]cn1)[C@@H](C)O)[C@@H](C)O)C(C)C)C(=O)N[C@@H](CCC(=O)O)C(=O)N[C@@H](Cc1c[nH]cn1)C(=O)N[C@@H](CC(C)C)C(=O)N[C@H](C(N)=O)C(C)C [compound 63] (H-H[Aib]EGTFTSDVSFLK([AEEA-AEEA-γGlu-C20 diacid])EEAAAQRFLEHLV-NH2) |  | 0.09 |  |  | 9044 | 10000 | 201002 | 0.0501 |
| CC(C)C[C@H](NC(=O)[C@H](Cc1ccccc1)NC(=O)[C@H](CCCNC(=N)N)NC(=O)[C@H](CCC(N)=O)NC(=O)[C@H](C)NC(=O)[C@H](C)NC(=O)[C@H](C)NC(=O)[C@H](CCC(=O)O)NC(=O)[C@H](CCC(=O)O)NC(=O)[C@H](CCCCNC(=O)COCCOCCNC(=O)COCCOCCNC(=O)CC[C@H](NC(=O)CCCCCCCCCCCCCCCCCCC(=O)O)C(=O)O)NC(=O)[C@H](CC(C)C)NC(=O)[C@H](CCC(=O)O)NC(=O)[C@H](CO)NC(=O)[C@@H](NC(=O)[C@H](CC(=O)O)NC(=O)[C@H](CO)NC(=O)[C@@H](NC(=O)[C@H](Cc1ccccc1)NC(=O)[C@@H](NC(=O)CNC(=O)[C@H](CCC(=O)O)NC(=O)C(C)(C)NC(=O)[C@@H](N)Cc1c[nH]cn1)[C@@H](C)O)[C@@H](C)O)C(C)C)C(=O)N[C@@H](CCC(=O)O)C(=O)N[C@@H](Cc1c[nH]cn1)C(=O)N[C@@H](CC(C)C)C(=O)N[C@H](C(N)=O)C(C)C [compound 98] (H-H[Aib]EGTFTSDVSELK([AEEA-AEEA-γGlu-C20 diacid])EEAAAQRFLEHLV-NH2) | 1260 | 0.09 | 0.0251 | 48854 | 10655 |  |  |  |

Further lines, results first:

| EC50 [1, 5] [nM] | Turbidity (pH 7) [2] | EC50 [3, 6] [nM] | SCTR EC50/GLP1R EC50 ratio [3] | Fibril formation [4] | EC50 ([1]; read-out: pEC50 hSCTR (converted)) [nM] | Selectivity ([3]; SCTR EC50/GLP1R EC50 ratio) | EC50 ([3]; read-out: pEC50 hGLPR1 (converted)) [nM] | SMILES |
| --- | --- | --- | --- | --- | --- | --- | --- | --- |
| 200 | 0.08 | 0.02 | 10415 | 3358 |  |  |  | CC(C)C[C@H](NC(=O)[C@H](C)NC(=O)[C@H](CCC(=O)O)NC(=O)[C@H](CCC(=O)O)NC(=O)[C@H](CCCCNC(=O)COCCOCCNC(=O)COCCOCCNC(=O)CC[C@H](NC(=O)CCCCCCCCCCCCCCCCCCC(=O)O)C(=O)O)NC(=O)[C@H](CC(C)C)NC(=O)[C@H](Cc1ccc(O)cc1)NC(=O)[C@H](CO)NC(=O)[C@@H](NC(=O)[C@H](CC(=O)O)NC(=O)[C@H](CO)NC(=O)[C@@H](NC(=O)[C@H](Cc1ccccc1)NC(=O)[C@@H](NC(=O)CNC(=O)[C@H](CCC(=O)O)NC(=O)C(C)(C)NC(=O)[C@@H](N)Cc1c[nH]cn1)[C@@H](C)O)[C@@H](C)O)C(C)C)C(=O)N[C@@H](CC(C)C)C(=O)N[C@@H](CCC(N)=O)C(=O)N[C@@H](CCCNC(=N)N)C(=O)N[C@@H](Cc1ccccc1)C(=O)N[C@@H](CC(C)C)C(=O)N[C@@H](CCC(=O)O)C(=O)N[C@@H](Cc1c[nH]cn1)C(=O)N[C@@H](CC(C)C)C(=O)N[C@H](C(N)=O)C(C)C [compound 132] (H-H[Aib]EGTFTSDVSYLK([AEEA-AEEA-γGlu-C20 diacid])EEALLQRFLEHLV-NH2) |
| 20000 | 0.08 | 0.0126 | 1484910 | 3679 |  |  |  | CC(C)C[C@H](NC(=O)[C@H](Cc1ccccc1)NC(=O)[C@H](CCCNC(=N)N)NC(=O)[C@H](CCC(N)=O)NC(=O)[C@H](CC(C)C)NC(=O)C(C)(C)NC(=O)[C@H](C)NC(=O)[C@H](CCC(=O)O)NC(=O)[C@H](CCC(=O)O)NC(=O)[C@H](CCCCNC(=O)COCCOCCNC(=O)COCCOCCNC(=O)CC[C@H](NC(=O)CCCCCCCCCCCCCCCCCCC(=O)O)C(=O)O)NC(=O)[C@H](CC(C)C)NC(=O)[C@H](Cc1ccc(O)cc1)NC(=O)[C@H](CO)NC(=O)[C@@H](NC(=O)[C@H](CC(=O)O)NC(=O)[C@H](CO)NC(=O)[C@@H](NC(=O)[C@H](Cc1ccccc1)NC(=O)[C@@H](NC(=O)CNC(=O)[C@H](CCC(=O)O)NC(=O)CNC(=O)[C@@H](N)Cc1c[nH]cn1)[C@@H](C)O)[C@@H](C)O)C(C)C)C(=O)N[C@@H](CCC(=O)O)C(=O)N[C@@H](Cc1c[nH]cn1)C(=O)N[C@@H](CC(C)C)C(=O)N[C@H](C(N)=O)C(C)C [compound 142] (H-HGEGTFTSDVSYLK([AEEA-AEEA-γGlu-C20 diacid])EEA[Aib]LQRFLEHLV-NH2) |
| 2000 | 0.08 | 0.00251 | 789678 | 3918 |  |  |  | CC(C)C[C@H](NC(=O)[C@H](Cc1ccccc1)NC(=O)[C@H](CCCNC(=N)N)NC(=O)[C@H](CCC(N)=O)NC(=O)[C@H](C)NC(=O)C(C)(C)NC(=O)[C@H](C)NC(=O)[C@H](CCC(=O)O)NC(=O)[C@H](CCC(=O)O)NC(=O)[C@H](CCCCNC(=O)COCCOCCNC(=O)COCCOCCNC(=O)CC[C@H](NC(=O)CCCCCCCCCCCCCCCCCCC(=O)O)C(=O)O)NC(=O)[C@H](CC(C)C)NC(=O)[C@H](Cc1ccc(O)cc1)NC(=O)[C@H](CO)NC(=O)[C@@H](NC(=O)[C@H](CC(=O)O)NC(=O)[C@H](CO)NC(=O)[C@@H](NC(=O)[C@H](Cc1ccccc1)NC(=O)[C@@H](NC(=O)CNC(=O)[C@H](CCC(=O)O)NC(=O)C(C)(C)NC(=O)[C@@H](N)Cc1c[nH]cn1)[C@@H](C)O)[C@@H](C)O)C(C)C)C(=O)N[C@@H](CCC(=O)O)C(=O)N[C@@H](Cc1c[nH]cn1)C(=O)N[C@@H](CC(C)C)C(=O)N[C@H](C(N)=O)C(C)C [compound 146] (H-H[Aib]EGTFTSDVSYLK([AEEA-AEEA-γGlu-C20 diacid])EEA[Aib]AQRFLEHLV-NH2) |
